Assay results from patent publication US20210069295A1, “GALECTINS CONTROL MTOR IN RESPONSE TO ENDOMEMBRANE DAMAGE AND PROVIDE A MECHANISM AND TARGET FOR THE TREATMENT OF AUTOPHAGY-RELATED DISEASES” (STC. UNM, priority 2017, published 2021).

Assays:
Gal8 and Gal9 = assay: Galectin puncta formation by high-content microscopy in HeLa cells; type: cell-based; conditions: HeLa cells overexpressing GFP-Gal8 or GFP-Gal9, 100 μM, 1 h full medium
Method: (A) Analysis of the puncta formation of galectins in response to GPN. HeLa cells overexpressing YFP-fused with the indicated galectins were treated with 100 μM GPN or without (Ctrl) in full medium for 1 h and galectin puncta were quantified by HC. […] White masks, algorithm defined cell boundaries (primary objects); green masks, computer-identified galectins puncta (target objects). Data, means±SEM, n≥3 independent experiments (500 primary objects counted per well; ≥5 wells/sample per each experiment); *p<0.05, **p<0.01, † p≥0.05, ANOVA. (B) Immunoprecipitation analysis of the interactions between galectins and mTOR or RagA GTPase. HEK293T cells overexpressing FLAG-tagged galectins were subjected to anti-FLAG immunoprecipitation followed by immunoblotting for endogenous mTOR or RagA. (C) Immunoprecipitation analysis of interactions between Gal8 and mTOR protein complexes in response to GPN treatment. […] Biotinylated proteins from HEK293T cell expressing APEX2-vector or APEX2-Gal8, after GPN and biotin phenol (BP) treatment were affinity-enriched by binding to streptavidin-beads, and samples were analyzed by immunoblotting analysis for endogenous RagA, p14, mTOR or Raptor. […]
(A) HC analysis of the puncta of galectins in response to chloroquine, Bafilomycin A1 and GPN. HeLa cells overexpressing GFP-Gal8 or GFP-Gal9 were treated with 100 μM chloroquine (CQ), […] (BAF) or 100 μM GPN in full medium for 1 h, and the puncta of GFP-Gal8 or GFP-Gal9 were quantified by HC. […] Data, means±SEM, n≥3 independent experiments (500 primary objects counted per well; ≥5 wells/sample per each experiment), † p≥0.05, **p<0.01, ANOVA. […] HeLa cells expressing GFP-Gal8 were treated with 100 μM GPN in full medium for 1 h, and the overlap between GFP-Gal8 and LAMP2 were quantified by HC. […] Data, means±SEM, n≥3 independent experiments (500 primary objects counted per well; ≥5 wells/sample per each experiment), **p<0.01, ANOVA. […]

mTOR, Raptor, RagA, p14 = assay: APEX2 proximity biotinylation with streptavidin enrichment and immunoblotting in HEK293T cells; type: cell-based; conditions: APEX2-galectin fusions
Method: (A) Analysis of the puncta formation of galectins in response to GPN. HeLa cells overexpressing YFP-fused with the indicated galectins were treated with 100 μM GPN or without (Ctrl) in full medium for 1 h and galectin puncta were quantified by HC. […] White masks, algorithm defined cell boundaries (primary objects); green masks, computer-identified galectins puncta (target objects). Data, means±SEM, n≥3 independent experiments (500 primary objects counted per well; ≥5 wells/sample per each experiment); *p<0.05, **p<0.01, † p≥0.05, ANOVA. (B) Immunoprecipitation analysis of the interactions between galectins and mTOR or RagA GTPase. HEK293T cells overexpressing FLAG-tagged galectins were subjected to anti-FLAG immunoprecipitation followed by immunoblotting for endogenous mTOR or RagA. (C) Immunoprecipitation analysis of interactions between Gal8 and mTOR protein complexes in response to GPN treatment. THP-1 cells not treated or treated with 100 μM GPN in full medium for 1 h were subjected to immunoprecipitation with anti-Gal8 antibody, followed by immunoblotting for endogenous RagA, p14, mTOR or Raptor. (D) Analysis of the proximity of Gal8 to mTOR and other proteins in mTOR complexes in response to GPN. Biotinylated proteins from HEK293T cell expressing APEX2-vector or APEX2-Gal8, after GPN and biotin phenol (BP) treatment were affinity-enriched by binding to streptavidin-beads, and samples were analyzed by immunoblotting analysis for endogenous RagA, p14, mTOR or Raptor. Data, means±SEM, (n=3), **p<0.01, ANOVA. (E) Immunoprecipitation analysis of the interactions between Gal8 and RagA GTPase and its mutants. Lysates of HEK293T cells overexpressing FLAG-Gal8 and HA-tagged RagA proteins (RagAWT, RagAT21L or RagAQ66L) were subjected to anti-FLAG immunoprecipitation, followed by immunoblotting for HA-tagged RagA proteins. (F) Immunoprecipitation analysis of the interactions between Gal8 and RagC GTPase and its mutants. HEK293T cells overexpressing FLAG-Gal8 and HA-tagged RagC proteins (RagCWT, RagCS75L or RagCQ120L) lysates were subjected to anti-FLAG immunoprecipitation, followed by immunoblotting for HA-tagged RagC proteins.
HEK293T cells transfected with pJJiaDEST-APEX2 or pJJiaDEST-APEX2-Gal8 were incubated with 100 μM GPN (Cayman Chemicals) in full medium for 1 h (confluence of cells remained at 70-80%). Cells were next incubated in 500 μM biotin-phenol (AdipoGen) in full medium for the last 30 min of GPN incubation. A 1 min pulse with 1 mM H2O2 at room temperature was stopped with quenching buffer (10 mM sodium ascorbate, 10 mM sodium azide and 5 mM Trolox in Dulbecco's Phosphate Buffered Saline (DPBS)). All samples were washed twice with quenching buffer, and twice with DPBS.
For immunoblotting analysis, cell pellets were lysed with 500 μL ice-cold RIPA lysis buffer (ThermoFisher Scientific) with protease inhibitor cocktail (Roche), 1 mM PMSF (sigma), 10 mM sodium ascorbate, 10 mM sodium azide and 5 mM Trolox, gently pipetted and then the incubated for 30 min. The lysates were clarified by centrifugation at 13,000 rpm for 5 min, followed by measuring protein concentrations using a Pierce BCA Protein Assay kit, with freshly made bovine serum albumin (BSA) solutions as standards. Streptavidin-coated magnetic beads (ThermoFisher Scientific) were washed with RIPA lysis buffer. 3 mg of each sample was mixed with 100 μL of streptavidin beads. […] 15 μL of each sample was separated by SDS-PAGE and analyzed by Western blot using indicated antibodies.

TAK1 = target: T1, TAK1 (Homo sapiens, UniProt O43318); assay: Co-IP of FLAG-tagged galectins with GFP-tagged TAK1 in HEK293T cells; type: binding; conditions: HEK293T overexpressing FLAG-tagged galectins and GFP-TAK1
T1 sequence (O43318 1-606): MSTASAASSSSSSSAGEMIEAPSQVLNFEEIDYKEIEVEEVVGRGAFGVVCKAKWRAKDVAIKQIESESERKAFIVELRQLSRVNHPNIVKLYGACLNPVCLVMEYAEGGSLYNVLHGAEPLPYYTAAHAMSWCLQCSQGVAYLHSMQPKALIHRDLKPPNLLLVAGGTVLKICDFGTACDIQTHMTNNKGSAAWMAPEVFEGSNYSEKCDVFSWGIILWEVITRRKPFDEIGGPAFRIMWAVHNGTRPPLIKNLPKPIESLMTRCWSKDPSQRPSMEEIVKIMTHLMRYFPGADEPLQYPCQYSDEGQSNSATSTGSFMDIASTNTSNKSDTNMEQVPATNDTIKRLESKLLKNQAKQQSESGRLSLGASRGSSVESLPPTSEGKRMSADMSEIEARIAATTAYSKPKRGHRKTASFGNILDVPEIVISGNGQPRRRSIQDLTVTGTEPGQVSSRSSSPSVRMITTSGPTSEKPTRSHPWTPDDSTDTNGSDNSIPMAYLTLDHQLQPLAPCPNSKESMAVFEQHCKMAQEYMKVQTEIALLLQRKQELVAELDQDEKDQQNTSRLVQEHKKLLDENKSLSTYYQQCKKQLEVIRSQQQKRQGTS
Method: (A) Analysis of the activation of AMPK in wildtype (WT) and the complementation of Gal9 in Gal9-knockout (Gal9KO) HEK293A cells treated with 100 μM GPN in full medium for 1 h. AMPK activity was monitored by immunoblotting analysis of AMPKα (T172) and acetyl-CoA carboxylase (ACC, S79) phosphorylation (phosphorylated AMPKα (T172) and ACC (S79) relative to total AMPKα and ACC respectively). (B) HEK293T cells transfected with scrambled siRNA (Scr) or Gal9 siRNA (Gal9KD) were treated with 2 mM LLOMe in full medium for 1 h, and the cell lysates were analyzed for phosphorylation of indicated proteins. Data, means±SEM, n=3, *p<0.05, ANOVA. (C) HEK293T cells overexpressing FLAG-Gal9 were treated with 2 mM LLOMe in full medium for 1 h. Cell lysates were analyzed for the indicated proteins. Data, means±SEM, n=3, *p<0.05, ANOVA. (D) Immunoprecipitation analysis of the interactions between galectins and TAK1. HEK293T cells overexpressing FLAG-tagged galectins and GFP-tagged TAK1 were subjected to anti-FLAG immunoprecipitation followed by immunoblotting for GFP-tagged TAK1. (E) Schematic diagram of Gal9 domains and deletion constructs. (F) HEK293T cells overexpressing FLAG-tagged full-length or truncated Gal9 and GFPAMPK were subjected to anti-FLAG immunoprecipitation, followed by immunoblotting for GFP-AMPK. (G) HEK293T cells overexpressing FLAG-tagged full-length or truncated Gal9 and GFP-TAK1 were subjected to anti-FLAG immunoprecipitation, followed by immunoblotting for GFP-TAK1. (H) Analysis of the activation of AMPK in HEK293T cells subjected to knockdowns as indicated treated with 100 μM GPN in full medium for 1 h. AMPK activity was monitored by immunoblotting analysis of AMPKα (T172) and acetyl-CoA carboxylase (ACC, S79) phosphorylation (phosphorylated AMPKα (T172) and ACC (S79) relative to total AMPKα and ACC respectively). Cells transfected with scrambled siRNA were as control (Scr). […]

AMPKα = assay: Co-IP of FLAG-tagged galectins with endogenous AMPKα in HEK293T cells; type: binding; conditions: HEK293T overexpressing FLAG-tagged galectins
AMPK = AMPK activation by immunoblotting of phosphorylated AMPKα, ACC and ULK1 in HEK293A cells; type: cell-based; conditions: Gal9 KO HEK293A, 1 μM oligomycin 1 h

CO/C1=C\C(C)=C\[C@@H](C)[C@@H](O)[C@@H](C)C/C(C)=C/C=C/[C@H](OC)[C@@H]([C@@H](C)[C@@H](O)[C@H](C)[C@@]2(O)C[C@@H](O)[C@H](C)[C@@H](C(C)C)O2)OC1=O [Bafilomycin A 1, Bafilomycin A1]
Gal8 and Gal9 puncta formation (Gal8 and Gal9): not upon treatment

Gal3: cytosolic lectin, galectin-3, used as comparator
mTOR, Raptor and RagA found in the proximity of the galectin (mTOR, Raptor, RagA, p14): not in the proximity
interaction with TAK1 (TAK1): not
AMPKα in complexes (co-IP) with galectin (AMPKα): not detected

CC[C@H]1/C=C/C=C/C[C@@H](C)[C@H](O)[C@@](C)(O)C(=O)[C@@H](C)[C@H](O)[C@@H](C)C(=O)[C@@H](C)[C@H](O)[C@@H](C)/C=C/C(=O)O[C@@H]2[C@H](C)[C@H](CC1)O[C@]1(CC[C@H](C)[C@H](C[C@@H](C)O)O1)[C@H]2C [oligomycin]
AMPK phosphorylation in Gal9 KO cells (AMPK): increased AMPK phosphorylation

CCN(CC)CCCC(C)Nc1ccnc2cc(Cl)ccc12 (stereo not drawn) [chloroquine]
Gal8 and Gal9 puncta formation (Gal8 and Gal9): not upon treatment
